This passage reports zone of inhibition and IC50 results from ChEMBL document CHEMBL1155795, “Revisiting the sponge sources, stereostructure, and biological activity of cyclocinamide a” (J Nat Prod, 2008).

The nature of assay [1]: Cytotoxicity against mouse CFU-GM cells assessed as zone of inhibition at 90 ug/disk by disk diffusion soft agar colony forming assay. The assay is classed as functional. The following applies: read-out: IZ.
The test system of assay [2] is HCT-116. Description: Cytotoxicity against human HCT116 cells. The class given is functional, cell-based.
Assay [3] in a line: Cytotoxicity against human […] cells assessed as zone of inhibition at 90 ug/disk by disk diffusion soft agar colony forming assay. The assay is classed as functional. To be noted: read-out: IZ. (A growth-free zone around the sample is the usual read-out of agar diffusion tests.)

Starred links: 1 amine or outer side, 2 acyl side, 3 side chain; linkers in the order of their positions; H or OH if unused. Positions of bridges follow the written chain, without caps; N, C: chain ends. Non-standard residues stand in square brackets, D forms with d. Residues, ends and D or L forms follow the SMILES beside them. *: point of attachment. Trp(5-Br) = N[C@@H](Cc1c[nH]c2ccc(Br)cc12)C(=O)O; isoSer(2S) = O=C([C@@H](O)CN[*:1])[*:2]; X1 = Cn1cc(Cl)cc1C(=O)*; Dap = NC[C@H](N)C(=O)O

The term IC50 denotes the concentration needed to halve the response being measured. Read a low IC50 as greater potency in that assay.

On to `Cn1cc(Cl)cc1C(=O)NCC(=O)N[C@H]1CNC(=O)[C@H](Cc2c[nH]c3ccc(Br)cc23)NC(=O)[C@@H](O)CNC(=O)[C@H](CC(N)=O)NC1=O` (X1-G[Dap]N[isoSer(2S)][Trp(5-Br)]; lactam 2-C), for which the zone of inhibition at 90 µg/disc in assay [1] turned out to be 16 mm; in assay [3], 26 mm. Moreover, the IC50 in assay [2] was greater than 10 µg/mL.
